In ChEMBL document CHEMBL4622860, “The relationship between the structure and toxicity of aminoglycoside antibiotics” (Bioorg Med Chem Lett, 2020):

What was measured:
[1] = Ototoxicity against C57BL/6 mouse cochlea hair cells assessed as reduction in cell viability at 0.1 mM incubated for 23 hrs by FITC-phalloidin staining-based assay; type: toxicity; conditions: read-out: INH
[2] = Nephrotoxicity in human patients assessed as proportion of patients with higher serum creatinine level; type: toxicity; conditions: in vivo

Structure (SMILES) | cytotoxicity at 23 h, 100 µM [1] [%] | Activity [2] [%]
NC[C@@H]1O[C@H](O[C@H]2[C@@H](O)[C@H](O[C@@H]3[C@@H](O)[C@H](N)C[C@H](N)[C@H]3O[C@H]3O[C@H](CN)[C@@H](O)[C@H](O)[C@H]3N)O[C@@H]2CO)[C@H](N)[C@@H](O)[C@@H]1O [FRAMYCETIN] | 20 | 
NC[C@@H]1O[C@H](O[C@H]2[C@@H](O)[C@H](O[C@@H]3[C@@H](O)[C@H](N)C[C@H](N)[C@H]3O[C@H]3O[C@H](CO)[C@@H](O)[C@H](O)[C@H]3N)O[C@@H]2CO)[C@H](N)[C@@H](O)[C@@H]1O [PAROMOMYCIN] | 4 | 
CN[C@@H]1[C@@H](O)[C@@H](O[C@@H]2[C@@H](O)[C@H](O[C@H]3OC(CNCCO)=CC[C@H]3N)[C@@H](N)C[C@H]2NC(=O)[C@@H](O)CCN)OC[C@]1(C)O [PLAZOMICIN] |  | 7
